{"source": "paper PMC5956543", "about": "“Antimicrobial and antioxidant activities of triterpenoid and phenolic derivatives from two Cameroonian Melastomataceae plants: Dissotis senegambiensis and Amphiblemma monticola” (BMC Complementary and Alternative Medicine, 2018)", "key": {"C. neoformans H99": {"tested_on": "C. neoformans H99", "test": "Broth microdilution antimicrobial assay (MIC/MMC)", "assay_type": "cell-based, Cryptococcus neoformans", "description": "(§1) The microorganisms used in this study include four bacterial (Staphylococcus aureus ATCC25923, methicillin sensitive S. aureus MSSA1, methicillin resistant S. aureus MRSA3 and methicillin resistant S. aureus MRSA4) and three yeast strains (Candida albicans ATCC10231, Candida tropicalis PK233 and Cryptococcus neoformans H99). These microorganisms were taken from our laboratory collection. The fungal and bacterial strains were grown at 37 °C and maintained on Sabouraud Dextrose Agar (SDA, Conda, Madrid, Spain) and nutrient agar (NA, Conda) slants respectively.\n(§2) The inocula of bacteria and yeasts were prepared from overnight cultures as previously described. Absorbance was read spectrophotometrically at 530 nm and 600 nm for yeasts and bacteria respectively. The final concentrations of microbial suspensions were 2.5 × 10^5 cells/mL for yeasts and 10^6 CFU/mL for bacteria.\n(§3) The antimicrobial activity was evaluated by determining the minimum inhibitory concentrations (MICs). MICs of extracts and compounds were determined by broth micro dilution. Each test sample was dissolved in 10% v/v aqueous dimethylsulfoxide (DMSO) to give a stock solution. This was serially diluted two-fold in Mueller-Hinton Broth (MHB) for bacteria and Sabouraud Dextrose Broth (SDB) for fungi to obtain a concentration range of 4096 to 0.25 μg/mL. Then, 100 μL of each sample concentration was added to respective wells (96-well micro plate) containing 90 μL of SDB/ MHB and 10 μL of inoculum to give final concentration ranges of 2048 to 4 μg/mL (for extracts) and 256 to 0.125 μg/mL (for compounds). Dilutions of nystatin (Sigma-Aldrich, Steinheim, Germany) and ciprofloxacin (Sigma-Aldrich, Steinheim, Germany) were used as positive controls for yeasts and bacteria respectively. Broth with 10 μL of DMSO was used as negative control. The cultured micro plates were covered; then, the contents of each well were mixed thoroughly using a plate shaker (Flow Laboratory, Germany) and incubated at 37 °C for 24 h (bacteria) and 48 h (yeasts) under shaking. After the incubation period, MICs were assessed visually and were taken as the lowest sample concentration at which there was no growth or virtually no growth. The lowest concentration that yielded no growth after the sub-culturing was considered as the minimum microbicidal concentrations (MMCs). All the tests were performed in triplicate."}, "C. albicans ATCC10231": {"tested_on": "C. albicans ATCC10231", "test": "Broth microdilution antimicrobial assay (MIC/MMC)", "assay_type": "cell-based, Candida albicans", "description": "as §1, §2, §3"}, "[1]": {"tested_on": "bacterial and fungal strains", "test": "Broth microdilution MIC, range over all tested strains", "assay_type": "cell-based", "description": "as §1, §2, §3"}, "C. tropicalis PK233": {"tested_on": "C. tropicalis PK233", "test": "Broth microdilution antimicrobial assay (MIC/MMC)", "assay_type": "cell-based, Candida tropicalis", "description": "as §1, §2, §3"}, "yeast strains": {"tested_on": "yeast strains", "test": "Broth microdilution MIC, range over the yeast strains", "assay_type": "cell-based", "conditions": "range over the three yeast strains", "description": "as §1, §2\nThe antimicrobial activity was evaluated by determining the minimum inhibitory concentrations (MICs). MICs of extracts and compounds were determined by broth micro dilution. Each test sample was dissolved in 10% v/v aqueous dimethylsulfoxide (DMSO) to give a stock solution. […] After the incubation period, MICs were assessed visually and were taken as the lowest sample concentration at which there was no growth or virtually no growth. […]"}, "S. aureus ATCC25923": {"tested_on": "S. aureus ATCC25923", "test": "Broth microdilution antimicrobial assay (MIC/MMC)", "assay_type": "cell-based, Staphylococcus aureus", "description": "as §1, §2, §3"}, "S. aureus MSSA1": {"tested_on": "S. aureus MSSA1", "test": "Broth microdilution antimicrobial assay (MIC/MMC)", "assay_type": "cell-based, Staphylococcus aureus", "description": "as §1, §2, §3"}, "S. aureus MRSA3": {"tested_on": "S. aureus MRSA3", "test": "Broth microdilution antimicrobial assay (MIC/MMC)", "assay_type": "cell-based, Staphylococcus aureus", "description": "as §1, §2, §3"}, "S. aureus MRSA4": {"tested_on": "S. aureus MRSA4", "test": "Broth microdilution antimicrobial assay (MIC/MMC)", "assay_type": "cell-based, Staphylococcus aureus", "description": "as §1, §2, §3"}, "[2]": {"conditions": "Staphylococcus aureus, 37 °C, 24 h"}, "[3]": {"conditions": "Staphylococcus aureus, 24 h, no growth after sub-culturing"}}}
{"compound": "O=c1oc2c(O)c(O)cc3c(=O)oc4c(O)c(O)cc1c4c23", "note": "[Compound 10, ellagic acid]", "values": [{"measurement": "MMC/MIC", "setting": "C. neoformans H99", "result": 1}, {"measurement": "MIC", "setting": "C. neoformans H99; Cryptococcus neoformans, 37 °C, 48 h, read-out: MIC", "result": 16, "unit": "µg/mL"}, {"measurement": "MFC", "setting": "C. neoformans H99; Cryptococcus neoformans, 48 h, no growth after sub-culturing", "result": 16, "unit": "µg/mL"}, {"measurement": "MMC/MIC", "setting": "C. albicans ATCC10231", "result": 1}, {"measurement": "MIC", "setting": "C. albicans ATCC10231; Candida albicans, 37 °C, 48 h, read-out: MIC", "result": 16, "unit": "µg/mL"}, {"measurement": "MMC", "setting": "C. albicans ATCC10231; no growth after sub-culturing", "result": 16, "unit": "µg/mL"}, {"measurement": "antimicrobial activity (in words)", "setting": "[1]; all the tested bacterial and fungal species", "result": "active against all the tested bacterial and fungal species"}, {"measurement": "MIC", "setting": "[1]; range over all bacterial and fungal strains, read-out: MIC", "result": "8 to 32", "unit": "µg/mL"}, {"measurement": "MMC/MIC", "setting": "C. tropicalis PK233", "result": 1}, {"measurement": "MIC", "setting": "C. tropicalis PK233; Candida tropicalis, 37 °C, 48 h, read-out: MIC", "result": 8, "unit": "µg/mL"}, {"measurement": "MFC", "setting": "C. tropicalis PK233; Candida tropicalis, 48 h, no growth after sub-culturing", "result": 8, "unit": "µg/mL"}, {"measurement": "MIC", "setting": "yeast strains", "result": "8 to 16", "unit": "µg/mL"}, {"measurement": "MMC/MIC", "setting": "S. aureus ATCC25923", "result": 2}, {"measurement": "MIC", "setting": "S. aureus ATCC25923; [2]", "result": 8, "unit": "µg/mL"}, {"measurement": "MBC", "setting": "S. aureus ATCC25923; [3]", "result": 16, "unit": "µg/mL"}, {"measurement": "MMC/MIC", "setting": "S. aureus MSSA1", "result": 1}, {"measurement": "MIC", "setting": "S. aureus MSSA1; [2]", "result": 16, "unit": "µg/mL"}, {"measurement": "MBC", "setting": "S. aureus MSSA1; [3]", "result": 16, "unit": "µg/mL"}, {"measurement": "activity against methicillin-resistant S. aureus (in words)", "setting": "S. aureus MRSA3; MRSA3", "result": "prominent activity"}, {"measurement": "MMC/MIC", "setting": "S. aureus MRSA3; S. aureus MRSA3", "result": 2}, {"measurement": "MBC", "setting": "S. aureus MRSA3; Staphylococcus aureus, 24 h, S. aureus MRSA3, no growth after sub-culturing", "result": 64, "unit": "µg/mL"}, {"measurement": "MIC", "setting": "S. aureus MRSA3; Staphylococcus aureus, S. aureus MRSA3, 37 °C, 24 h", "result": 32, "unit": "µg/mL"}, {"measurement": "activity against methicillin-resistant S. aureus (in words)", "setting": "S. aureus MRSA4; MRSA4", "result": "prominent activity"}, {"measurement": "MMC/MIC", "setting": "S. aureus MRSA4; S. aureus MRSA4", "result": 1}, {"measurement": "MBC", "setting": "S. aureus MRSA4; Staphylococcus aureus, 24 h, S. aureus MRSA4, no growth after sub-culturing", "result": 32, "unit": "µg/mL"}, {"measurement": "MIC", "setting": "S. aureus MRSA4; Staphylococcus aureus, S. aureus MRSA4, 37 °C, 24 h", "result": 32, "unit": "µg/mL"}]}
